Experimental data taken from patent US20220125877A1, “METHOD FOR TREATING COLORECTAL CANCER” (SUN YAT-SEN UNIVERSITY, priority 2019, published 2022).

Key:
[1] = system: KRAS wildtype CRC cells CaCO2; assay: Cell viability (CCK-8 method); assay type: cell-based; conditions: Homo sapiens, Caco-2; CCK8, FIG. 10
Method: (§1) The cells were inoculated on a plate according to the concentration of 5000 cells/well (48-well plate, 200 μl per well). The cells were treated with different ways according to the experimental requirements, and 10 μl CCK8 solution was added after a period of time. The cells were incubated for 1 h in an incubator; 200 μl supernatant were absorbed into a 96-well ELISA plate to determine OD450 with a microplate reader.
(§2) (2) Metformin with a gradient concentration was used in vitro to treat KRAS wildtype colorectal cancer cell lines SW48 and CaCO2, KRAS G13D-mutation colorectal cancer cell lines HCT-116 and LoVo, as well as KRAS G12V-mutation colorectal cancer cell lines SW480 and SW620. In addition, the metformin with a gradient concentration was used to treat the KRAS wildtype colorectal cancer cell line SW48 transfected with KRAS G12V, KRAS G13D and KRAS G12D plasmids.
(§3) 5 μM and 10 μM lansoprazole were used to treat HCT-116 and LoVo simultaneously; metformin was used to treat the cells at the same time for 48 h; the cell viability was detected by CCK8.

[2] = system: KRAS wildtype CRC cells SW48; assay: Cell viability (CCK-8 method); assay type: cell-based; conditions: Homo sapiens, CCK8, FIG. 10
Method: as §1, §2, §3

[3] = Concentration of metformin in tumor tissues by mass spectrometry; assay type: in vivo; conditions: KRAS mutation vs KRAS wildtype tumor tissues, FIG. 11F
Source text: The concentration of metformin in KRAS wildtype and mutation tumor tissues was detected by mass spectrometry.

[4] = system: LoVo cell line with knock-down KRAS, TET1/2 interfered; assay: Proliferation with TET1/2 interfered; assay type: cell-based, human; conditions: MATE1 down-regulated once again, FIG. 16G
[5] = system: SW48 KRAS (G13D) cell line; assay: Proliferation / cell cycle in CRISPR/Cas9 KRAS (G13D) cells; assay type: cell-based, human; conditions: relative to SW48, FIG. 8E
Method: 1) The cells were inoculated onto a 6-well plate, and subjected to adherence growth for 12 h, then starvation treatment over the night, and treated with the addition of an agent for 24 h, then the cells were digested and washed for 3 times with PBS and centrifuged to discard supernatant; −20° C. pre-cooled 70% ethanol was added dropwise, and the cells were mixed well by vortex, and immobilized over the night at −20° C.

## CN(C)C(=N)N=C(N)N [metformin]
[1]
  IC50: 88.1 mM
[2]
  IC50: 90.8 mM
[3]
  concentration of metformin in tumor tissues: higher than that in the KRAS wildtype tumor tissues
[4]
  inhibiting effect on proliferation of tumor cells with TET1/2 interfered: accelerating the inhibiting effect
[5]
  inhibiting effect on proliferation of tumor cells with cell cycle after KRAS (G13D) mutation: enhances the inhibiting effect
